Test results: PubChem BioAssay (NCI)
Where “and” joins values, the source holds several entries; their conditions need not be identical. Equal entries are not always repeated.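 Method: 48-hour compound exposure of cells in 96-well plates, five concentrations, linear interpolation of endpoints. GI50: concentration for 50% inhibition of growth. Definition used: TGI = concentration required for complete inhibition of growth.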

Key:
Test in all cases: NCI anticancer screen, dose series, 48 h
HS 578T breast = system: HS 578T breast
TK-10 renal = system: TK-10 renal
U251 CNS = system: U251 CNS
SN12C renal = system: SN12C renal
UO-31 renal = system: UO-31 renal
HCT-15 colon = system: HCT-15 colon
SK-MEL-2 melanoma = system: SK-MEL-2 melanoma
HCT-116 colon = system: HCT-116 colon
DU-145 prostate = system: DU-145 prostate
PC-3 prostate = system: PC-3 prostate
HCC-2998 colon = system: HCC-2998 colon
UACC-257 melanoma = system: UACC-257 melanoma
MOLT-4 leukemia = system: MOLT-4 leukemia
OVCAR-5 ovarian = system: OVCAR-5 ovarian
MDA-MB-435 = system: MDA-MB-435
RXF 393 renal = system: RXF 393 renal
NCI-H460 lung = system: NCI-H460 lung
COLO 205 colon = system: COLO 205 colon
OVCAR-4 ovarian = system: OVCAR-4 ovarian
MDA-MB-231 breast = system: MDA-MB-231 breast
SK-OV-3 ovarian = system: SK-OV-3 ovarian
SF-268 CNS = system: SF-268 CNS
SF-539 CNS = system: SF-539 CNS
NCI-H23 lung = system: NCI-H23 lung
HOP-62 NSCLC = system: HOP-62 NSCLC
NCI-H522 lung = system: NCI-H522 lung
NCI-H226 lung = system: NCI-H226 lung

## COCCNCCc1cccc(Nc2ncc3c(n2)-c2ccccc2C(c2ccccc2F)C3)c1 (centres undefined)
HS 578T breast
  GI50: 1150 nM and 1270 nM
  TGI: 3460 nM and 3790 nM
TK-10 renal
  GI50: 1380 nM and 1600 nM
  TGI: 2740 nM and 2980 nM
U251 CNS
  GI50: 1240 nM and 1820 nM
  TGI: 2570 nM and 3280 nM
SN12C renal
  GI50: 1320 nM and 1040 nM
  TGI: 2700 nM and 2340 nM
UO-31 renal
  GI50: 685 nM and 1290 nM
  TGI: 2060 nM and 2570 nM
HCT-15 colon
  GI50: 1190 nM and 1260 nM
  TGI: 2560 nM and 2600 nM
SK-MEL-2 melanoma
  GI50: 1710 nM and 1940 nM
  TGI: 3190 nM and 3440 nM
HCT-116 colon
  GI50: 1210 nM and 1660 nM
  TGI: 2600 nM and 3120 nM
DU-145 prostate
  GI50: 1530 nM and 1620 nM
  TGI: 2980 nM and 3040 nM
PC-3 prostate
  GI50: 1490 nM and 1390 nM
  TGI: 2890 nM and 2860 nM
HCC-2998 colon
  GI50: 1770 nM and 2080 nM
  TGI: 3280 nM and 3650 nM
UACC-257 melanoma
  GI50: 2010 nM and 2150 nM
  TGI: 3540 nM and 4050 nM
MOLT-4 leukemia
  GI50: 1180 nM
  TGI: 4150 nM
OVCAR-5 ovarian
  GI50: 1420 nM and 1570 nM
  TGI: 2760 nM and 3020 nM
MDA-MB-435
  GI50: 1750 nM and 1820 nM
  TGI: 3250 nM and 3320 nM
RXF 393 renal
  GI50: 1110 nM and 1240 nM
  TGI: 2390 nM and 2590 nM
NCI-H460 lung
  GI50: 1330 nM and 1700 nM
  TGI: 3080 nM and 3470 nM
COLO 205 colon
  GI50: 1880 nM and 1920 nM
  TGI: 3670 nM and 3630 nM
OVCAR-4 ovarian
  GI50: 1340 nM and 1720 nM
  TGI: 2740 nM and 3180 nM
MDA-MB-231 breast
  GI50: 1670 nM and 1450 nM
  TGI: 3110 nM and 2840 nM
SK-OV-3 ovarian
  GI50: 1710 nM and 2450 nM
  TGI: 3140 nM and 6340 nM
SF-268 CNS
  GI50: 1440 nM and 1640 nM
  TGI: 3070 nM and 3190 nM
SF-539 CNS
  GI50: 1320 nM and 1500 nM
  TGI: 2620 nM and 2860 nM
NCI-H23 lung
  GI50: 1650 nM and 1750 nM
  TGI: 3100 nM and 3320 nM
HOP-62 NSCLC
  GI50: 1600 nM and 1710 nM
  TGI: 3110 nM and 3300 nM
NCI-H522 lung
  GI50: 1530 nM and 1520 nM
  TGI: 2950 nM
NCI-H226 lung
  GI50: 1310 nM and 1800 nM
  TGI: 2940 nM and 3670 nM
